The target in test [1] is T1, Serine/threonine-protein kinase haspin (Homo sapiens) (UniProt Q8TF76).
T1 sequence (whole entry): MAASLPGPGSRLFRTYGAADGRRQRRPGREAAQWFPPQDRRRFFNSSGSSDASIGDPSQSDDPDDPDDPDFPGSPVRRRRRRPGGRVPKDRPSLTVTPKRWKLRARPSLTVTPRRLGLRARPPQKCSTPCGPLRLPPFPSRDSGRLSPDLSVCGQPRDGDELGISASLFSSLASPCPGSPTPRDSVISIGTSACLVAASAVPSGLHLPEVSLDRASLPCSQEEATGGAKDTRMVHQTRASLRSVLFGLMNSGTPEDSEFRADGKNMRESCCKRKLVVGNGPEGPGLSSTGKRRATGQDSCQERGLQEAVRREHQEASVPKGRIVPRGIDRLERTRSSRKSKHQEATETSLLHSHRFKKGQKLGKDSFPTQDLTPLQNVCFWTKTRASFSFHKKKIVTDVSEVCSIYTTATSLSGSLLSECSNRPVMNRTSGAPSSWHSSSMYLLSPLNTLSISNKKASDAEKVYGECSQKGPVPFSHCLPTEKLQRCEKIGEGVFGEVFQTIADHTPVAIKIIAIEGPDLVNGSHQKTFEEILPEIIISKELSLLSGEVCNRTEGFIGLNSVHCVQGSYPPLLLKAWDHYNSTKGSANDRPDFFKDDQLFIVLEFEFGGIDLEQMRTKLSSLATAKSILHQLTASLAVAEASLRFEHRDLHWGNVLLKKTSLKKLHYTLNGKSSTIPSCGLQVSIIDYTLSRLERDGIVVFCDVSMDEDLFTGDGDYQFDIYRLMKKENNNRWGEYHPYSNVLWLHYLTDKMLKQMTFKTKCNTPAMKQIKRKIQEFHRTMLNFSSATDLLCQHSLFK
The experiment in a line: Selectivity interaction (Kinase panel (DSF assay)) EUB0001558a GSG2. A general note: Differential scanning fluorimetry follows unfolding on heating by fluorescence.

Test [2] has as its target T2, Phosphatidylinositol 3-kinase C2 domain-containing subunit gamma (Homo sapiens) (UniProt O75747).
T2 sequence (whole entry): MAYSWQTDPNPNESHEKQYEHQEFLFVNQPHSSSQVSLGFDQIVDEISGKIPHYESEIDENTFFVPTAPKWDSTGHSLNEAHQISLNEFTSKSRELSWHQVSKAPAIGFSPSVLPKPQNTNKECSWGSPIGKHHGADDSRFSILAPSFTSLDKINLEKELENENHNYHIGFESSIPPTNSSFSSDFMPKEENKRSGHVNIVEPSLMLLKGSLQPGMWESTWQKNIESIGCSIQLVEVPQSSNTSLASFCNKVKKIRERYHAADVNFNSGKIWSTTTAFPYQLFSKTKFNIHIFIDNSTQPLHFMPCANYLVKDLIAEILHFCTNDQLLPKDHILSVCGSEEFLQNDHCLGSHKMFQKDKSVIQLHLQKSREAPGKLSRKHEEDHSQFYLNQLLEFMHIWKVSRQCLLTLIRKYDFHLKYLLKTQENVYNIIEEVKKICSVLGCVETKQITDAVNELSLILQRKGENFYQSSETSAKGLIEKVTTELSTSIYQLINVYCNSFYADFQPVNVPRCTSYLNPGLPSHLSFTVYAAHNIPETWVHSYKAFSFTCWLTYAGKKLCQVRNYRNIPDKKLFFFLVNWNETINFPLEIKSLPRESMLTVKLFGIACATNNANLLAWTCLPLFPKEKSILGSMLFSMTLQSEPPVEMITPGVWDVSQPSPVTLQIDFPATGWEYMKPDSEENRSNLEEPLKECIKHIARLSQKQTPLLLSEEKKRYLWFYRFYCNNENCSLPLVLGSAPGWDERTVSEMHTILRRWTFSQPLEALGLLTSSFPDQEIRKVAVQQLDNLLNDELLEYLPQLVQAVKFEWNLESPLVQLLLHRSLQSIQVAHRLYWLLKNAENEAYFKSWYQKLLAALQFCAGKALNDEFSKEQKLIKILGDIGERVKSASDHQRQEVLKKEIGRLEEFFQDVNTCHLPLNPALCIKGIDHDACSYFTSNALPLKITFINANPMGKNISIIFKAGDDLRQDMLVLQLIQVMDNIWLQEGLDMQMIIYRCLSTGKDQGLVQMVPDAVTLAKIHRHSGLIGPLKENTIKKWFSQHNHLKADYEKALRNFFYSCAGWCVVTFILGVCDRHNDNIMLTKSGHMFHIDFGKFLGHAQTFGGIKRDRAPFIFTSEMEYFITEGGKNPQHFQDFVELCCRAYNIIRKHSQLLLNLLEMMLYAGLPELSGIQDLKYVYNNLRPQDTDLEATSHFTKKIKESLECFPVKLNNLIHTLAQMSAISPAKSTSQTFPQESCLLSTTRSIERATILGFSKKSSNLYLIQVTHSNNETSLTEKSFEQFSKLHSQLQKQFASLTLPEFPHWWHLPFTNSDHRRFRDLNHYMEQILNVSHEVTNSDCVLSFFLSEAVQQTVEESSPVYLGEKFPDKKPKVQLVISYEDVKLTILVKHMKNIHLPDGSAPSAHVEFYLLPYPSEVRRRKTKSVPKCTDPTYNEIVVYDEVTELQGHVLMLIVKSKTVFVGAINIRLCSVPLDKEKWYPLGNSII
The experiment in a line: Selectivity interaction (KinomeScan (DiscoverX)) EUB0001049a PIK3C2G. The following applies: at 1 µM.

Test [3] concerns the target T3, Homeodomain-interacting protein kinase 4 (Homo sapiens) (UniProt Q8NE63).
T3 sequence (whole entry): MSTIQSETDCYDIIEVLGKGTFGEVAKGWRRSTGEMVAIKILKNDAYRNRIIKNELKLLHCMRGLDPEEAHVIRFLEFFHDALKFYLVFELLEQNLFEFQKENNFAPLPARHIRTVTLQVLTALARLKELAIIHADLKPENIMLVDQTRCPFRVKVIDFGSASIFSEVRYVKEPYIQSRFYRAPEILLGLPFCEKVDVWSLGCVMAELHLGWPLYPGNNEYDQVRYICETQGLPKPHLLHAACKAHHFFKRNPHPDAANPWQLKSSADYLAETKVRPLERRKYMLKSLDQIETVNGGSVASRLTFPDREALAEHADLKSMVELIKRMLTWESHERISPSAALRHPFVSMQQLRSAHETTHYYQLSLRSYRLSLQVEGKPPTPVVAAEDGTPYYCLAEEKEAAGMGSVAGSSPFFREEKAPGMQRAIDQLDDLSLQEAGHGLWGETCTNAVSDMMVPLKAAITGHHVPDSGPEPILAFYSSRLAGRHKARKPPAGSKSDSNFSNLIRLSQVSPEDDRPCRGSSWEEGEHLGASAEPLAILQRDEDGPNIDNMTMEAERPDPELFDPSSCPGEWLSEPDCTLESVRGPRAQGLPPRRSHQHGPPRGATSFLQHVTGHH
Description: Selectivity interaction (KinomeScan (DiscoverX)) EUB0000655a HIPK4. The following applies: at 10 µM.

This note sets out measurements from ChEMBL document CHEMBL5465560, “Selectivity Literature for EUbOPEN Chemogenomic Library” (2024).

`CC(C)(O)[C@H](F)CN1Cc2cc(NC(=O)c3cnn4cccnc34)c(N3CCOCC3)cc2C1=O` showed a dTM in test [1] of 0.4 K.

Turning to `COc1cc(Nc2nc(C)cc(-c3cnn4nc(OC)ccc34)n2)cc(C(F)(F)F)c1`, the % of control in test [2] amounted to 89%. Consider `CN(C)CCOc1ccc(-c2nc(-c3ccncc3)c(-c3ccc4c(c3)CC/C4=N\O)[nH]2)cc1`, for which the % of control in test [3] came to 18%.
